Literature values in patent publication US20260191206A1, “SYNERGISTIC INSECTICIDAL COMPOSITION COMPRISING PHTHALIMIDE COMPOUNDS AND THE USE THEREOF” (COUNCIL OF SCIENTIFIC AND INDUSTRIAL RESEARCH AN INDIAN …, priority 2022, published 2026).

Test system: trehalose 6-phosphate phosphatase
Conditions: Cross et al, Sci Rep 9, 16165 (2019)

Compound: O=C1c2ccccc2C(=O)N1Sc1ccccc1 [NPP, N-(Phenylthio) phthalimide]
- inhibition of trehalose 6-phosphate phosphatase: inhibit
